The values that follow come from patent publication US20060128614A1, “Antimicrobial peptides with reduced hemolysis and methods of their use” (priority 2002, published 2006).

Data set [1] has as its system Gram-positive and Gram-negative bacteria. Kind of data set: Antimicrobial activity of Trp template peptides. The class given is cell-based. The note with it: qualitative statement.
The conditions of data set [2]: qualitative statement.
The subject of another data set is E. coli. It counts as cell-based, Escherichia coli. Here is the method: (§1) The in vitro antimicrobial activities of antimicrobial agents were tested using standard NCCLS bacterial and fungi inhibition assays or minimum inhibition concentration (MIC) tests. The MIC value is the lowest concentration of peptide at which the visible growth of test organisms was inhibited and reduced. Overnight cultures of the test organisms were diluted to produce an inoculum containing approximately […] in Meuller-Hinton broth (MHB). From the peptide stock solution, serial dilutions of the peptides into […] were prepared and all wells of a 96-well microtiter plate were subsequently inoculated with the diluted culture of the test organisms. After 18 hours of incubation at 37°, the results were assayed for turbidity as an indicator of cell growth. MIC values for the peptides are shown in Table 3 and Table 4 and FIGS. 1(A), 1(B), 1 (C) and 1 (D) show survival rates for Pac-625 and Pac-626.

A further data set deals with S. aureus. It counts as cell-based, Staphylococcus aureus. Here is the method:
as §1

The next data set deals with B. subtilis. It counts as cell-based, Bacillus subtilis. The method, then:
as §1

Another data set relates to S. epidermidis. It counts as cell-based, Staphylococcus epidermidis. The method, then: as §1
A further data set has as its system Candida albicans. It counts as cell-based. Here is the method:
as §1

In data set [3] the test system is outer membrane of E. coli. Kind of data set: NPN uptake assay, outer membrane permeabilization. It counts as cell-based. The note with it: intact cells of E. coli. The method, then:
The outer membrane permeabilization activity of the peptide variants was determined by the 1-N-phenylnaphthylamine (NPN) uptake assay, using intact cells of E. coli. […] Since NPN is hydrophobic, it provides a direct measurement of the degree of outer membrane permeability. E. coli take up little or no NPN in a general condition. In the presence of permeabilizer compounds (EDTA, polymyxin B, Neomycin, or antimicrobial peptides), NPN partitioned into the bacterial outer membrane results in an increase in fluorescence. Fluorescence will vary with the concentration of peptide.
One ml of overnight culture was used to inoculate 50 ml of media and incubated at 37° C. with shaking. The culture was permitted to grow to an OD600 of 0.4 to 0.6, cells were spun down at 3500 rpm for 10 minutes, washed, and re-suspended in buffer to an OD600 of 0.5. The OD600 was recorded, 1 ml of cells (OD600=0.5) was added to the cuvette and measured after 2-5 seconds. 20 μl NPN 0.5 mM, shaken to mix, was added and measured after 2-5 seconds. 10 ul antibiotic 100× desired final concentration was added, shaken to mix, and measured until the maximal value was reached within 1 to 5 minutes. The concentration of peptide leading to 50% of the maximum increase in NPN uptake was recorded as the P50.

Data set [4] has as its system human red blood cells (RBC). The class given is cell-based. Here is the method:
Pac-401, Pac-403, Pac-625 and Pac-626 were tested for hemolysis against human red blood cells (RBC). The RBCs with EDTA were rinsed 3 times with PBS (800 g, 10 min) and re-suspended in PBS. The RBCs were diluted into 10% with phosphate-buffered saline and placed […] into each eppendorf. The peptides dissolved in PBS were then added to 50 μl of 10% solution of RBCs and incubated for an hour at 37° C. (final RBC concentration, 5% v/v). The samples were centrifuged at 800 g for 10 min […]. Various concentrations of peptides were incubated with pretreated RBC and the percentage of hemolysis determined.

A further data set concerns B. cereus. The class given is cell-based, Bacillus cereus. Here is the method: as §1

The structures appear in SMILES notation. ≈ marks a conversion by molar mass, not a printed value. Where two headings read alike, the source gives them in different places. Non-standard residues stand in square brackets, D forms with d. Residues, ends and D or L forms follow the SMILES beside them. 2Nal = N[C@@H](Cc1ccc2ccccc2c1)C(=O)O

Turning to `CC[C@H](C)[C@H](NC(=O)[C@H](Cc1c[nH]c2ccccc12)NC(=O)[C@H](CCCNC(=N)N)NC(=O)[C@@H](NC(=O)[C@H](Cc1c[nH]c2ccccc12)NC(=O)[C@H](CCCNC(=N)N)NC(=O)[C@H](CCCNC(=N)N)NC(=O)[C@H](Cc1c[nH]c2ccccc12)NC(=O)[C@H](CCCCN)NC(C)=O)C(C)C)C(N)=O` [Pac-525, Ac-KWRRWVRW1-NH2] (Ac-KWRRWVRWI-NH2), in [1], the antimicrobial activity entry is “improved activity against both Gram-positive and Gram-negative bacteria”. In [2], the hemolytic activity entry is on record as “reduced hemolytic activity”.

For the compound `CC[C@H](C)[C@H](NC(C)=O)C(=O)N[C@@H](Cc1c[nH]c2ccccc12)C(=O)N[C@@H](CCCNC(=N)N)C(=O)N[C@H](C(=O)N[C@@H](Cc1c[nH]c2ccccc12)C(=O)N[C@@H](CCCNC(=N)N)C(=O)N[C@@H](CCCNC(=N)N)C(=O)N[C@@H](Cc1c[nH]c2ccccc12)C(=O)N[C@@H](CCCCN)C(N)=O)C(C)C` [Pac-525rev, Ac-IWRVWRRWK-NH2] (Ac-IWRVWRRWK-NH2), the hemolytic activity result in data set [2] is “very similar to that of Pac-525”.

For `CC[C@H](C)[C@H](NC(=O)[C@H](Cc1ccc2ccccc2c1)NC(=O)[C@H](CCCNC(=N)N)NC(=O)[C@@H](NC(=O)[C@H](Cc1ccc2ccccc2c1)NC(=O)[C@H](CCCNC(=N)N)NC(=O)[C@H](CCCNC(=N)N)NC(=O)[C@H](Cc1ccc2ccccc2c1)NC(=O)[C@H](CCCCN)NC(C)=O)C(C)C)C(N)=O` [Pac-625 L, K (2-Nal) R R (2-Nal) V R (2-Nal) I] (Ac-K[2Nal]RR[2Nal]VR[2Nal]I-NH2), the “MIC against E. coli” value in the data set with E. coli turned out to be 2 µg/mL (≈ 1.37 µM). The “MIC against E. coli” value against E. coli (18 h) worked out at 2 µg/mL (≈ 1.37 µM). Moreover, the “MIC against S. aureus” value with S. aureus amounted to 4 µg/mL (≈ 2.74 µM). Further, the “MIC against S. aureus” value in the data set with S. aureus (18 h) was 4 µg/mL (≈ 2.74 µM). In the data set on B. subtilis, the “MIC B. subtilis” value was determined as 4 µg/mL (≈ 2.74 µM). In addition, the “MIC S. epidermidis” value in the data set on S. epidermidis amounted to 2 µg/mL (≈ 1.37 µM). The “MIC Candida albicans” value against Candida albicans was determined as 16 µg/mL (≈ 11 µM). The “P50 (concentration of peptide leading to 50% of the maximum increase in NPN uptake)” value in [3] worked out at 2 µg/mL. In data set [4], the “% lysis @ 5 μg/ml” value came out at 0.82%, the “% lysis @ 50 μg/ml” value stood at 7.3% and the “% lysis @ 500 μg/ml” value is reported as 15%.

`CC[C@H](C)[C@H](NC(C)=O)C(=O)N[C@@H](Cc1ccc2ccccc2c1)C(=O)N[C@@H](CCCNC(=N)N)C(=O)N[C@H](C(=O)N[C@@H](Cc1ccc2ccccc2c1)C(=O)N[C@@H](CCCNC(=N)N)C(=O)N[C@@H](CCCNC(=N)N)C(=O)N[C@@H](Cc1ccc2ccccc2c1)C(=O)N[C@@H](CCCCN)C(N)=O)C(C)C` [Pac-626 L, I (2-Nal) R V (2-Nal) R R (2-Nal) K] (Ac-I[2Nal]RV[2Nal]RR[2Nal]K-NH2): the “MIC against E. coli” value against E. coli came out at 4 µg/mL (≈ 2.74 µM). The “MIC against E. coli” value in the data set on E. coli (18 h) stood at 4 µg/mL (≈ 2.74 µM). Besides, in the data set with S. aureus, the “MIC S. aureus” value amounted to 4 µg/mL (≈ 2.74 µM) and the “MIC against S. aureus” value worked out at 4 µg/mL (≈ 2.74 µM). Moreover, the “MIC against S. aureus” value against S. aureus (18 h) was 4 µg/mL (≈ 2.74 µM). Further, the “MIC B. cereus” value against B. cereus came to 4 µg/mL (≈ 2.74 µM). Further, the “MIC Candida albicans” value in the data set with Candida albicans turned out to be 32 µg/mL (≈ 21.9 µM). Also, in data set [3], the “P50 (concentration of peptide leading to 50% of the maximum increase in NPN uptake)” value was determined as 2 µg/mL. In [4], the “% lysis @ 5 μg/ml” value stood at 0.81%, the “% lysis @ 50 μg/ml” value turned out to be 7.2% and the “% lysis @ 500 μg/ml” value came to 14%.
